Data reported in patent US7598377B2, “Inhibition of phosphoinositide 3-kinase β” (AstraZeneca AB, priority 2002, dated 2009).
pIC50: −log10 of the molar value. Like-named read-outs stand apart in the source and are kept apart here.

Tests used:
[1] = tested on: carotid artery cyclic flow reductions in rat; experiment: Animal model of internal carotid artery occlusion (Folts); assay type: in vivo; conditions: 14.0 mg/kg via the jugular vein
Text: This model is used to investigate the effects of antithrombotic drugs on clotting time in vivo in response to a crash injury followed by arterial stenosis.
The carotid artery of an anesthetized rat is dissected out, and an electromagnetic flow probe is placed around the artery to measure blood flow. Proximal to the flow probe, the artery is clamped with surgical forceps covered with silicone tubing to cause intimal and medial damage to the vessel wall. A ligature, or plastic cylinder of appropriate inside diameter is laced around the artery to produce a 70% reduction in arterial diameter.
Platelets aggregate in the area of the stenosed and damaged arterial vessel, gradually forming an occlusive platelet thrombus, seen as a decrease in blood flow. As the thrombus forms, blood pressure increases, causing the thrombus to fragment and embolize distal to the stenosed site. […] This causes a sudden restoration of blood flow. Platelets again aggregate in the area of the stenosed and damaged arterial vessel, repeating the thrombus-embolization pattern. This acute, platelet-mediated thrombus formation, followed by embolization, causes Cyclic Flow Reductions (CFR) in blood flow. Once a rat produces regular CFRs, an anti-thrombotic compound or vehicle control is administered via the jugular vein.

[2] = tested on: platelet rich plasma; experiment: CD9-antibody induced platelet aggregation of platelet rich plasma; assay type: cell-based; conditions: read-out: Platelet aggregation v. CD9 antibody Example 10 IC50/
Protocol: The inhibitory effect of TGX286 and KN327 on platelet aggregation induced by the antibody CD9 was examined in platelet rich plasma (PRP). A suspension of PRP was incubated with 20-100 nM TGX286 or control buffer (0.1% DMSO) and treated with an aliquot of the antibody. Aggregation under stirring was monitored in a four channel aggregometer for 10 minutes. The level of aggregation was measured as the change in light transmission through the sample cell.

[3] = tested on: platelet thrombus formation in citrated whole blood; experiment: Platelet thrombus formation under flow (Example 12, 600 s^−1); assay type: cell-based; conditions: read-out: Inhibition of Thrombus formation Example 12 IC50/
Protocol: Blood was perfused through von Willebrand factor—(vWf) coated microcapillary tubes for 2 minutes at 600 s^−1. Non-adherent cells were removed by perfusion of buffer for 2 minutes at 600 s^−1 and any adherent erythrocytes lysed through treatment with 1% ammonium oxalate. Adherent platelets were then lysed through addition of 1% Triton X-100 and lactate dehydrogenase (LDH) levels (U/L) analysed by spectrophotometry.

[4] = target: T1, P110 γ (Homo sapiens, UniProt P48736); experiment: Isoform selective in vitro PI3K enzyme assay (Example 13), γ recombinant; assay type: biochemical; conditions: read-out: P110 γ IC50s
T1 construct: made in house
Protocol: (§1) In vitro enzyme assays were conducted as a primary screen to determine drug candidate isoform affinity and specificity. The α and β isoforms of the PI3K were immunoprecipitated from a platelet lysate, using an antibodies obtained from Santa Cruz Biotechnology, that recognized specific regions of p110α (sc-7174) and β (sc-603) isoforms. The γ isoform was produced as a recombinant protein in the Kinacia laboratories. […] Standard phosphorylation assays using phosphatidylinositol and ^32P were used to measure the enzyme activity in the immunoprecipates in the presence or absence of an inhibitor. Enzyme activity was determined over a range of inhibitor concentrations to establish an IC50 value.

[5] = tested on: neutrophils; experiment: Neutrophil ROS response (fmlp, DHR, FACS); assay type: cell-based, human; conditions: fmlp stimulation, read-out: ROS release from neutrophils Example 14 IC50/
Protocol: 3 ml of preservative free whole blood was placed in a 50 ml conical tube. 48 ml of erythrocyte lysing solution and gently mixed by inversion for 10 min at 25° C. on a haematology nutator and subsequently centrifuged for 10 min at 350×g at 25° C. in a table top centrifuge. The Leukocyte rich pellet was resuspended in phosphate buffered saline supplemented with […] (PBS-gel) and centrifuged as above. The Leukocyte pellet was washed once with Hanks' balanced salt solution (HBSS) and resuspended at a final cell count of 2×10^6/ml and used immediately.
Reactive Oxygen Species (ROS) generation is one of the hall-marks of neutrophil activation. A number of chemokines and cytokines potentiate ROS generation by neutrophils. […] ROS generation was measured by monitoring the oxidation of intracellular dihydrorhodamine 123 (DHR) via fluorescence activated cell sorting (FACS) by modification of the method of Robinson et al., (pp 9.7.5-9.7.9 in Curr. Protocols in Cytometry (1997)). A Leukocyte suspension was bulk loaded with 2 μl of 50 mM DHR per ml cells ([…]) and incubated at 37° C. for 12 min. […] Fluorescence base-line data was calibrated using these gated control neutrophils. Stimulated cell samples were analysed and linear green fluorescence (DHR) was monitored for 5000 gated neutrophils from each sample. […]

[6] = tested on: PI 3-kinase immunoprecipitated from human platelets (p85/110 form); experiment: In vitro PI 3-kinase assay (Example 8), Platelet IP (p85); assay type: biochemical; conditions: read-out: Platelet IP (p85) IC50s
Protocol: The effect of pyridine-substituted compounds on PI 3-kinase activity was determined using an in vitro PI 3-kinase assay. This assay was performed using PI 3-kinase immunoprecipitated from human platelets as the enzyme and PI as the substrate. The PI 3-kinase activity was quantitated by measuring the enzymatic incorporation of [^32P] into PI, forming PI([^32P]-3)P, as previously described (Susa et al., 1992, The Journal of Biological Chemistry 267(32):22951-22956.
Washed human platelets were lysed in Triton X-100 lysis buffer (10 mM Tris, pH 7.4, 1% Triton X-100, 2 mM EDTA, 1 mM PMSF) for 30 minutes. The Triton X-100 insoluble fraction was removed by centrifugation of the cell lysates at 15,000 g for 10 minutes. PI 3-kinase was immunoprecipitated by mixing 500 μg of the cell lysate with 1 μg of a rabbit anti-rat antibody against the p85/110 form of PI 3-kinase and 30 μl of 50% Protein A-sepharose beads for 2 hours at 4° C. The Protein A-sepharose-bound PI 3-kinase was isolated by pelleting the beads at 15,000 g for 5 seconds, and washing three times with ice-cold Triton X-100 lysis buffer followed by four washes with PI 3-kinase assay buffer (20 mM HEPES, pH 7.4, 1 mM EGTA, 5 mM MgCl2).
PI stored in CHCl3 was dried under N2, resuspended in the lipid buffer (50 mM HEPES, pH 7.2, 1 mM EDTA) at a final concentration of 330 μg/ml, and sonicated for 6 minutes on ice. PI([^32P]-3)P was generated by mixing the immunoprecipitated PI 3-kinase for 20 minutes with 40 μl of the PI, 10 μl of ATP (1 mM) and ^32P-r-ATP (0.5 μCi, 1 μCi/nmol), 10 μl of 10× kinase buffer, in a final assay volume of 100 μl adjusted with H2O. TGX-was preincubated with the PI 3-kinase for 5 minutes prior to the addition of ATP. The assay was terminated with 100 μl of 1 N HCl, and the PI([^32P]-3)P product extracted with 200 μl chloroform:methanol (1:1) and 500 μl 2 M KCl. The PI([^32P]-3)P in the chloroform phase was resolved by thin layer chromatography using a solvent system containing CHCl3:MeOH:HAC:H2O (43:38:5:7) (v:v:v:v), and visualized by autoradiography. The PI([^32P]-3)P spots were then scraped off from the TLC plates, deacylated with 1 ml methylamine:butanol:methanol (42:9:47) (v:v:v) for 4 hours at 53° C., and quantitated using a liquid scintillation counter (LKB 1209 RackBETA).

[7] = target: T2, P110 δ (Homo sapiens, UniProt O00329); experiment: Isoform selective in vitro PI3K enzyme assay (Example 13), δ from THP-1 cells; assay type: biochemical; conditions: read-out: P110 δ IC50s
T2 construct: The δ isoform was immunoprecipitated from THP-1 cells; endogenous in cells; host or cells: THP-1 cells (immunoprecipitated with antibody sc-7176)
Protocol: as §1, with “The α and β isoforms of the PI3K were immunoprecipitated from a platelet lysate, using an antibodies obtained from Santa Cruz Biotechnology, that recognized specific regions of p110α (sc-7174) and β (sc-603) isoforms.” left out

[8] = tested on: platelets on immobilized vWf; experiment: In vitro flow studies: platelet calcium flux and adhesion on immobilized vWf; assay type: cell-based; conditions: vWf matrix, shear rate gradient up to 10,000 s^−1 over 1 s
Protocol: The use of an in vitro-flow based adhesion assay enables us to simultaneously analyze platelet adhesion dynamics and activation (by monitoring cytosolic calcium flux) on immobilized von Willebrand factor (vWf). Briefly, isolated platelets are perfused through vWf (100 μg/ml) coated microcapillary tubes and analysis of cytosolic calcium flux conducted in real-time by confocal microscopy.
Washed platelets (1.5×10^9) suspended in PWB were incubated with the calcium indicator dyes, Oregon Green 488 BAPTA-1, AM (1 μM) and Fura Red, AM (1.25 μM), for 30 min at 37° C. Platelets were washed twice with PWB prior to being resuspended in Tyrode's buffer containing 1 mM calcium.
For static adhesion assays, platelets were allowed to settle on the surface of vWf-coated coverslips for 30 min at 37° C. For flow assays, platelets were either perfused over a vWf-coated microcapillary tube at a constant shear rate of 600, 1800 or 10,000 s^−1 or allowed to settle on the surface of a vWf-coated microcapillary tube prior to being accelerated through a shear gradient of 10,000 s^−1 over a 1 s interval. Real time platelet calcium flux in individual platelets was monitored at 1 s intervals over the 30 min incubation period or at 0.586 s intervals for up to 175 s for static and flow-based assays, respectively.

[9] = tested on: T3, various isoforms of PI3K; conditions: measured IC50 stated to agree with previously reported values; read-out: IC50 against the various isoforms of PI3K; cited from earlier work
T3 construct: The γ isoform was produced as a recombinant protein in the Kinacia laboratories

[10] = target: T4, P110 β isoform (Homo sapiens, UniProt P42338); experiment: Isoform selective in vitro PI3K enzyme assay (Example 13), β; assay type: biochemical
T4 construct: The α and β isoforms of the PI3K were immunoprecipitated from a platelet lysate; from tissue; host or cells: washed platelets (lysate, immunoprecipitated with anti-p110β antibody)
Protocol: In vitro enzyme assays were conducted as a primary screen to determine drug candidate isoform affinity and specificity. The α and β isoforms of the PI3K were immunoprecipitated from a platelet lysate, using an antibodies obtained from Santa Cruz Biotechnology, that recognized specific regions of p110α (sc-7174) and β (sc-603) isoforms. The γ isoform was produced as a recombinant protein in the Kinacia laboratories. The δ isoform was immunoprecipitated from THP-1 cells in a similar manner using a δ isoform specific antibody (sc-7176). Standard phosphorylation assays using phosphatidylinositol and ^32P were used to measure the enzyme activity in the immunoprecipates in the presence or absence of an inhibitor. Enzyme activity was determined over a range of inhibitor concentrations to establish an IC50 value.

[11] = tested on: washed platelets; experiment: Flow-based reconstitution assay (platelet adhesion to vWf); assay type: cell-based; conditions: 1800 s^−1
Protocol: The platelets and reconstituted red blood cells were perfused through vWf-coated glass microslides for 1 minute at a shear rate of 1800 s^−1. Non-adherent cells were removed by washing for 10 minutes at 1800 s^−1 and the number of adherent platelet were quantitated and expressed as the mean±SEM.

[12] = tested on: U937 cells; experiment: Cell proliferation assay; assay type: cell-based; conditions: Homo sapiens, U-937; read-out: Anti-proliferative activity v. U937 cells Example 16 IC50/
Text: The cytotoxic activity of the compounds was monitored over four days by counting cell number, and determining cell viability using a colorimetric assay of metabolic activity.

T2 sequence (O00329 whole entry, canonical isoform): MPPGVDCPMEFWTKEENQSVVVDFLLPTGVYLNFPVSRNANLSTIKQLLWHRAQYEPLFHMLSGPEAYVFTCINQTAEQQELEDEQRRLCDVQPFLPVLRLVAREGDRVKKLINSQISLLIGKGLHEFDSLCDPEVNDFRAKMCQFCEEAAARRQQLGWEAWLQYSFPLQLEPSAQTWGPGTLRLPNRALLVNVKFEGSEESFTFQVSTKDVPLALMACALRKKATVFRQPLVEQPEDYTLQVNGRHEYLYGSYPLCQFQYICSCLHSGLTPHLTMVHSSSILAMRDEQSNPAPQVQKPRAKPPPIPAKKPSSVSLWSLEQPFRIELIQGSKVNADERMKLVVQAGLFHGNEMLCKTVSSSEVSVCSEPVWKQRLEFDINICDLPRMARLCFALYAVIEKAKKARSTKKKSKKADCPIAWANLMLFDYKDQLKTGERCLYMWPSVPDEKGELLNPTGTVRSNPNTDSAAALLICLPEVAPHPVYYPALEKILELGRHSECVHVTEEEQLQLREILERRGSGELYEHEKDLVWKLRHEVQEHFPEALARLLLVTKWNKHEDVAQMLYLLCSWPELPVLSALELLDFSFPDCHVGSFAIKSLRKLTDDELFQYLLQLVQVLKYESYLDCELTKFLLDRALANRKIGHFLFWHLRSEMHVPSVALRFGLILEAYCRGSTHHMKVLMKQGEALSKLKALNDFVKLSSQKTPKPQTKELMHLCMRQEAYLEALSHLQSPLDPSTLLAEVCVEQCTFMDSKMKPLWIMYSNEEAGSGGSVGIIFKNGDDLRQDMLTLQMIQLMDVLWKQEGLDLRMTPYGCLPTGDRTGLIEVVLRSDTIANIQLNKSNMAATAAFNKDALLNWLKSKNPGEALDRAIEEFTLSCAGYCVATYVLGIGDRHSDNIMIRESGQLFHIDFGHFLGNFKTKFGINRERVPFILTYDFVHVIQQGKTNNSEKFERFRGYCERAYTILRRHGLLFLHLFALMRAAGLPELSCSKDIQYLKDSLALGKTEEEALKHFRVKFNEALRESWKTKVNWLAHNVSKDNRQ
T2 sequence (P27986 whole entry partner, canonical isoform): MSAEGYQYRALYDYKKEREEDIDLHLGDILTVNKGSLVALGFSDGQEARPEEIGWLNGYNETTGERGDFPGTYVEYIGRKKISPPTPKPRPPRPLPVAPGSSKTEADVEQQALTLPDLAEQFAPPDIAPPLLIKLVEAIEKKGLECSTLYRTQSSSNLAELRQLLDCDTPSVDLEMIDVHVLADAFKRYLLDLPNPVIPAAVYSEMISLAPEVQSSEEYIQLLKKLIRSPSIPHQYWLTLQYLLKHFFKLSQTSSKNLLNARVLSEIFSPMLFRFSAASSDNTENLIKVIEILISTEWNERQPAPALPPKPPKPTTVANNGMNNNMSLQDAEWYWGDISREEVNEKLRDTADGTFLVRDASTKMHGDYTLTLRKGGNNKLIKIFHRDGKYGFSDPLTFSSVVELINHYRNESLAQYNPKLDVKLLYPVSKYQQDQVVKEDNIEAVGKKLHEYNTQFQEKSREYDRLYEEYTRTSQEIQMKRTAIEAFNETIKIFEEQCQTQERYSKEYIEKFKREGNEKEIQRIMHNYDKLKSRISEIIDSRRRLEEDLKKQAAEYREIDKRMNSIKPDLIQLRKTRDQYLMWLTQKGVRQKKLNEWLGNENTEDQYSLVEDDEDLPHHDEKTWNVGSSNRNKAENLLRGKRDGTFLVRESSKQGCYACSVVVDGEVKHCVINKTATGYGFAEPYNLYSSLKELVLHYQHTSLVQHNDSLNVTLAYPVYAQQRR
T4 sequence (P42338 whole entry, canonical isoform): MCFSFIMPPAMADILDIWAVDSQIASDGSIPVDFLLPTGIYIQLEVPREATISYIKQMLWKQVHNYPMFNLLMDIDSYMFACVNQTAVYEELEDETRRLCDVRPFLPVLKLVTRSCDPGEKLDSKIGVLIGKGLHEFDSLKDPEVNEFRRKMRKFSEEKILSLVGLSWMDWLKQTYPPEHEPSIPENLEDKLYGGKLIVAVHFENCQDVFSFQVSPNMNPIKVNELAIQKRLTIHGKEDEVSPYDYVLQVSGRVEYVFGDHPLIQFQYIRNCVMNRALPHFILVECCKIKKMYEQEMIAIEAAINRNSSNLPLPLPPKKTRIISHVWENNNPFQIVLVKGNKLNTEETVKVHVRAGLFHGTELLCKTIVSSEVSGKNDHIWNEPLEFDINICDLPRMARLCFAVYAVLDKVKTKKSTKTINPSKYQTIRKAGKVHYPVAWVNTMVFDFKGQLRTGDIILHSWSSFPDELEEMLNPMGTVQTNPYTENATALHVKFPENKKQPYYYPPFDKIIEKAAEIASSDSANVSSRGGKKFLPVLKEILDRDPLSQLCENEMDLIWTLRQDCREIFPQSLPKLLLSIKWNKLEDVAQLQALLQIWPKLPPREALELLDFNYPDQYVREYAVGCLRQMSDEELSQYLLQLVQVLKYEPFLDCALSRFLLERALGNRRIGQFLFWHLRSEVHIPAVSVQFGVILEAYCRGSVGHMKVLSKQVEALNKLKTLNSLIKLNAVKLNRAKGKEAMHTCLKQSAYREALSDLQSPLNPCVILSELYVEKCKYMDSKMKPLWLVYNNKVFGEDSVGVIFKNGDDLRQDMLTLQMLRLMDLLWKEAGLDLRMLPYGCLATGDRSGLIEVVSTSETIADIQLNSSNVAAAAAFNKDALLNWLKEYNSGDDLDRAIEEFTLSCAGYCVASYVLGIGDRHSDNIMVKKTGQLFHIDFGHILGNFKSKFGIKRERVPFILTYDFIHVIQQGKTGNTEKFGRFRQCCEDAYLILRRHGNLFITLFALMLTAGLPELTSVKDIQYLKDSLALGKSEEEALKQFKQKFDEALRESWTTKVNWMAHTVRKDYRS
T4 sequence (P27986 whole entry partner, canonical isoform): as the sequence (P27986 whole entry partner, canonical isoform) above
T1 sequence (P48736 whole entry, species assumed, canonical isoform): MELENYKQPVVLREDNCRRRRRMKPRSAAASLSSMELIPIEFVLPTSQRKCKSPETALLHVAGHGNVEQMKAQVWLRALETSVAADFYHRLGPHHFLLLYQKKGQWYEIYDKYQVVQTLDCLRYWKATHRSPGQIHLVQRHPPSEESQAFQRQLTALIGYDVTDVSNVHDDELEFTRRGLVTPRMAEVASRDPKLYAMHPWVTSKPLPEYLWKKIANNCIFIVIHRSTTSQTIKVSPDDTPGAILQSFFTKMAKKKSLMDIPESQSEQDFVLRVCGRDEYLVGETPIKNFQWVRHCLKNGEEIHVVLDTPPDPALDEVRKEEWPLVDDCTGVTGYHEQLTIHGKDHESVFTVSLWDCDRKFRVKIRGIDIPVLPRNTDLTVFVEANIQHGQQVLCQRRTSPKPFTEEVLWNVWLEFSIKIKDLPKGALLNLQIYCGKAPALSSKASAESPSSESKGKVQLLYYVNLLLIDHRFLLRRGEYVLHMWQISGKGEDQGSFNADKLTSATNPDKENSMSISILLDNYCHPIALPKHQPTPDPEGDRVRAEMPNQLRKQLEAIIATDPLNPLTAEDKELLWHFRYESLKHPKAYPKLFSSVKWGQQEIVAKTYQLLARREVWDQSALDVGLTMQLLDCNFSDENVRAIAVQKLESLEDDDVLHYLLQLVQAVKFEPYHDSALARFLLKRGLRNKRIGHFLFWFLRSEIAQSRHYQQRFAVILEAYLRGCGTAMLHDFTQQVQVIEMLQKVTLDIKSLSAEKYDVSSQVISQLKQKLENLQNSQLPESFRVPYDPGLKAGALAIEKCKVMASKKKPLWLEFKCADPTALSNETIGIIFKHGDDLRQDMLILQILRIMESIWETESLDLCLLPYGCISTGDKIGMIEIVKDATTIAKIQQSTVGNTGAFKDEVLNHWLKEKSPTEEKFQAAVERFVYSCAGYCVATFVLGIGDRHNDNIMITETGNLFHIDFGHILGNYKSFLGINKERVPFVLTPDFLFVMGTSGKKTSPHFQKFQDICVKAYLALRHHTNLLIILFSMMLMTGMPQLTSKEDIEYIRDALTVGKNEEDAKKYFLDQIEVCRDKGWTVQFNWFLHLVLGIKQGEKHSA

pIC50 [3]	pIC50 [4]	pIC50 [5]	pIC50 [7]	Compound	treated animals returned to baseline within 10 minutes [1] [%]	pIC50 [2]	pIC50 [6]	platelet responses to accelerated shear [8]	pIC50 [9]	pIC50 [10]	decrease in platelet adhesion ([11]; 10 nM) [%]	decrease in platelet adhesion ([11]; 25 nM) [%]	decrease in platelet adhesion ([11]; 50 nM) [%]	pIC50 [12]	pIC50 ([3]; Platelet)	pIC50 ([5]; Homo sapiens, Neutrophil)
6.60	4.82	7.11	6.30	8-(1-(2-aminophenylamino)ethyl-2-(4-pyridinyl)-4H-benzopyran-1-one [KN327]	80	6.70	7.70	–	–	–	–	–	–	–	–	–
–	–	–	–	O=c1cc(N2CCOCC2)oc2c(-c3ccccc3)cccc12 [LY294002, 8-phenyl-2-(4-morpholinyl)-4H-benzopyran-4-one, reference compound]	–	–	–	eliminates platelet responses to accelerated shear	5.82 to 6.30	–	–	–	–	–	–	–
–	–	–	–	Cc1cc(C(C)Nc2ccccc2)c2oc(-c3ccncc3)cc(=O)c2c1 (stereo not shown) [TGX-286, 8-1-(phenylamino)ethyl-6-methyl-2-(4-pyridinyl)-4H-1-benzopyran-4-one]	80	7.00	8.70	–	–	8.70	51	67	86	5.30	6.30	8.30
